Measurements from patent publication US8889671B2, “Compounds and methods for treating bacterial infections” (AstraZeneca AB, priority 2013, dated 2014).
Values after ≈ are worked out from the molar mass of the structure shown. Where two headings read alike, the source gives them in different places.

How the values were obtained:
Pseudomonas aeruginosa = experiment: Susceptibility testing (MIC) Assay 2, broth microdilution; assay type: cell-based; conditions: for MIC: PAO1, read-out: Pae MIC
Haemophilus influenzae = experiment: as above; assay type: cell-based; conditions: ATCC 51907, in vivo strain, read-out: Hin MIC
Klebsiella pneumoniae = experiment: as above; assay type: cell-based; conditions: clinical isolate, mucoid, read-out: Kpn MIC
Escherichia coli = experiment: as above; assay type: cell-based; conditions: K12, read-out: Eco MIC
Streptococcus pneumoniae = experiment: Susceptibility testing (MIC) Assay 1, broth microdilution; assay type: cell-based
Streptococcus pyogenes = experiment: as above; assay type: cell-based; conditions: Streptococcus pyrgenes, in vivo strain, read-out: Spy MIC
Staphylococcus aureus = experiment: as above; assay type: cell-based
[1] = biological target: Escherichia coli DNA gyrase A/B tetramer (Escherichia coli (strain K12), UniProt P0AES4+P0AES6); experiment: DNA gyrase supercoiling activity fluorescence polarisation assay; assay type: biochemical; conditions: 0.3 mM ATP
How it was run: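 IC50 derived by nonlinear regression from BODIPY-FL fluorescence anisotropy, read 60 min after quenching with labelled triplex-forming probe (pH 3.5). Reaction: 5 nM gyrase tetramer, 130 micrograms/mL relaxed plasmid, 0.3 mM ATP, 4 mM MgCl2, pH 7.5, typically 30 min at ambient temperature, 5-10 compound concentrations.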

[2] = ATCC51907, Haemophilus influenzae
[3] = in vivo strain (footnote b), read-out: Spn(b) MIC
[4] = in vivo strain (footnote c), read-out: Spn(c) MIC
[5] = Staphylococcus aureus, Staphylococcus aureus in vivo strain, MSQS, read-out: Sau(d) MIC
[6] = Staphylococcus aureus, in vivo strain, MRQR, read-out: Sau(e) MIC
[7] = Staphylococcus aureus, serum, read-out: Sau(f) MIC
[8] = Eco Gyr FP Mean IC50, E. coli DNA gyrase supercoiling

| Structure (SMILES) | MIC (Pseudomonas aeruginosa) [µM] | MIC (Haemophilus influenzae; [2]) [µM] | MIC (Klebsiella pneumoniae) [µM] | MIC (Escherichia coli) [µM] | MIC (Streptococcus pneumoniae; [3]) [µM] | MIC (Streptococcus pneumoniae; [4]) [µM] | MIC (Streptococcus pyogenes; Streptococcus pyogenes) [µM] | MIC (Staphylococcus aureus; [5]) [µM] | MIC (Staphylococcus aureus; [6]) [µM] | MIC (Staphylococcus aureus; [7]) [µM] | IC50 [1, 8] [nM] | Pae MIC (Pseudomonas aeruginosa; PAO1) [µM] | MIC (Haemophilus influenzae) [µM] | MIC (Streptococcus pyogenes) [µM] | MIC (Staphylococcus aureus; Staphylococcus aureus in vivo strain, MSQS, read-out: Sau(d) MIC) [µM] | IC50 ([1]; E. coli DNA gyrase supercoiling, read-out: Eco Gyr FP Mean IC50) [nM] |
| --- | --- | --- | --- | --- | --- | --- | --- | --- | --- | --- | --- | --- | --- | --- | --- | --- |
| C[C@@H]1CN2c3c(cc4c(N5C(=O)O[C@@H](C)[C@H]5C)noc4c3F)CC3(C(=O)NC(=O)NC3=O)[C@H]2[C@H](C)O1 [Example 24] | > 200 | 3.1 (≈ 1.55 µg/mL) | > 200 | 50 (≈ 25.1 µg/mL) | 1.6 (≈ 0.802 µg/mL) | 1.6 (≈ 0.802 µg/mL) | 0.78 (≈ 0.391 µg/mL) | 0.39 (≈ 0.196 µg/mL) | 1.6 (≈ 0.802 µg/mL) | 1.6 (≈ 0.802 µg/mL) | > 2100 |  |  |  |  |  |
| CC[C@H]1COC(=O)N1c1noc2c(F)c3c(cc12)CC1(C(=O)NC(=O)NC1=O)[C@H]1[C@H](C)O[C@H](C)CN31 [Example 6, (2R,4S,4aS)-8-[(4S)-4-Ethyl-2-oxo-1,3-oxazolidin-3-yl]-11-fluoro-2,4-dimethyl-1,2,4,4a-tetrahydro-2′H,6H-spiro[1,4-oxazino[4,3-a][1,2]oxazolo[4,5-g]quinoline-5,5′-pyrimidine]-2′,4′,6′(1′H,3′H)-trione] | > 200 | 3.1 (≈ 1.55 µg/mL) | 121 (≈ 60.7 µg/mL) | 100 (≈ 50.1 µg/mL) | 6.2 (≈ 3.11 µg/mL) | 3.1 (≈ 1.55 µg/mL) | 3.1 (≈ 1.55 µg/mL) | 1.6 (≈ 0.802 µg/mL) | 6.2 (≈ 3.11 µg/mL) | 12 (≈ 6.02 µg/mL) | 3300 |  |  |  |  |  |
| C[C@@H]1CN2c3c(cc4c(N5C(=O)OC[C@H]5Cc5ccccc5)noc4c3F)CC3(C(=O)NC(=O)NC3=O)[C@H]2[C@H](C)O1 [Example 10, (2R,4S,4aS)-8-[(4R)-4-Benzyl-2-oxo-1,3-oxazolidin-3-yl]-11-fluoro-2,4-dimethyl-1,2,4,4a-tetrahydro-2′H,6H-spiro[1,4-oxazino[4,3-a][1,2]oxazolo[4,5-g]quinoline-5,5′-pyrimidine]-2′,4′,6′(1′H,3′H)-trione] | > 200 | 25 (≈ 14.1 µg/mL) | > 200 | > 200 | 50 (≈ 28.2 µg/mL) | 50 (≈ 28.2 µg/mL) | 25 (≈ 14.1 µg/mL) | 6.2 (≈ 3.49 µg/mL) | 12 (≈ 6.76 µg/mL) | 200 (≈ 113 µg/mL) | 6700 |  |  |  |  |  |
| C[C@@H]1CN2c3c(cc4c(N5C(=O)OC[C@@H]5C5CCOCC5)noc4c3F)CC3(C(=O)NC(=O)NC3=O)[C@H]2[C@H](C)O1 [Example 28] |  |  | >200 | >200 | 25 (≈ 13.9 µg/mL) | 25 (≈ 13.9 µg/mL) |  |  | 50 (≈ 27.9 µg/mL) | 50 (≈ 27.9 µg/mL) |  | >200 | 25 (≈ 13.9 µg/mL) | 25 (≈ 13.9 µg/mL) | 25 (≈ 13.9 µg/mL) | > 2100 |
| CON=C[C@H]1COC(=O)N1c1noc2c(F)c3c(cc12)CC1(C(=O)NC(=O)NC1=O)[C@H]1[C@H](C)O[C@H](C)CN31 [Example 42, (2R,4S,4aS)-11-Fluoro-8-{(4S)-4-[(methoxyimino)methyl]-2-oxo-1,3-oxazolidin-3-yl}-2,4-dimethyl-1,2,4,4a-tetrahydro-2′H,6H-spiro[1,4-oxazino[4,3-a][1,2]oxazolo[4,5-g]quinoline-5,5′-pyrimidine]-2′,4′,6′(1′H,3′H)-trione] | > 200 | 0.39 (≈ 0.207 µg/mL) | 200 (≈ 106 µg/mL) | 25 (≈ 13.3 µg/mL) | 0.39 (≈ 0.207 µg/mL) | 0.39 (≈ 0.207 µg/mL) | 0.39 (≈ 0.207 µg/mL) | < 0.2 | 0.39 (≈ 0.207 µg/mL) | 1.6 (≈ 0.849 µg/mL) | 290 |  |  |  |  |  |
| C[C@@H]1CN2c3c(cc4c(N5C(=O)OC[C@H]5CN=[N+]=[N-])noc4c3F)CC3(C(=O)NC(=O)NC3=O)[C@H]2[C@H](C)O1 [Example 47, (2R,4S,4aS)-8-((R)-4-(Azidomethyl)-2-oxooxazolidin-3-yl)-11-fluoro-2,4-dimethyl-2,4,4a,6-tetrahydro-1H,1′H-spiro[isoxazolo[4,5-g][1,4]oxazino[4,3-a]quinoline-5,5′-pyrimidine]-2′,4′,6′(3′H)-trione] | > 200 | 0.78 (≈ 0.412 µg/mL) | 200 (≈ 106 µg/mL) | 25 (≈ 13.2 µg/mL) | 0.39 (≈ 0.206 µg/mL) | 0.55 (≈ 0.291 µg/mL) | 0.279 (≈ 0.147 µg/mL) | < 0.2 | 0.78 (≈ 0.412 µg/mL) | 0.78 (≈ 0.412 µg/mL) | 150 |  |  |  |  |  |
| C[C@@H]1CN2c3c(cc4c(N5C(=O)OC[C@@H]5CCCO)noc4c3F)CC3(C(=O)NC(=O)NC3=O)[C@H]2[C@H](C)O1 [Example 29, (2R,4S,4aS)-11-Fluoro-8-((S)-4-(3-hydroxypropyl)-2-oxooxazolidin-3-yl)-2,4-dimethyl-2,4,4a,6-tetrahydro-1H,1′H-spiro[isoxazolo[4,5-g][1,4]oxazino[4,3-a]quinoline-5,5′-pyrimidine]-2′,4′,6′(3′H)-trione] | > 200 | 0.78 (≈ 0.415 µg/mL) | > 200 | 100 (≈ 53.1 µg/mL) | 0.39 (≈ 0.207 µg/mL) | 0.78 (≈ 0.415 µg/mL) | 0.39 (≈ 0.207 µg/mL) | 3.1 (≈ 1.65 µg/mL) | 12 (≈ 6.38 µg/mL) | 3.1 (≈ 1.65 µg/mL) | 270 |  |  |  |  |  |
| CON=C[C@H]1CN(c2noc3c(F)c4c(cc23)CC2(C(=O)NC(=O)NC2=O)[C@H]2[C@H](C)O[C@H](C)CN42)C(=O)O1 [Example 43] | > 100 | 1.6 (≈ 0.849 µg/mL) | > 100 | 50 (≈ 26.5 µg/mL) | 0.78 (≈ 0.414 µg/mL) | 1.6 (≈ 0.849 µg/mL) | 0.78 (≈ 0.414 µg/mL) | 0.39 (≈ 0.207 µg/mL) | 0.78 (≈ 0.414 µg/mL) | 1.6 (≈ 0.849 µg/mL) | 440 |  |  |  |  |  |
| C[C@@H]1CN2c3c(cc4c(N5C[C@H](CO)OC5=O)noc4c3F)CC3(C(=O)NC(=O)NC3=O)[C@H]2[C@H](C)O1 [Example 37, (2R,4S,4aS)-11-Fluoro-8-[(5R)-5-(hydroxymethyl)-2-oxo-1,3-oxazolidin-3-yl]-2,4-dimethyl-1,2,4,4a-tetrahydro-2′H,6H-spiro[1,4-oxazino[4,3-a][1,2]oxazolo[4,5-g]quinoline-5,5′-pyrimidine]-2′,4′,6′(1′H,3′H)-trione] | > 200 | 0.39 (≈ 0.196 µg/mL) | > 200 | 200 (≈ 101 µg/mL) | 0.39 (≈ 0.196 µg/mL) | 0.78 (≈ 0.393 µg/mL) | 0.39 (≈ 0.196 µg/mL) | 3.1 (≈ 1.56 µg/mL) | 25 (≈ 12.6 µg/mL) | 6.2 (≈ 3.12 µg/mL) | 120 |  |  |  |  |  |
| COC[C@H]1CN(c2noc3c(Cl)c4c(cc23)CC2(C(=O)NC(=O)NC2=O)[C@H]2[C@H](C)O[C@H](C)CN42)C(=O)O1 [Example 21, (2R,4S,4aS)-11-Chloro-8-[(5R)-4-(methoxymethyl)-2-oxo-1,3-oxazolidin-3-yl]-2,4-dimethyl-1,2,4,4a-tetrahydro-2′H,6H-spiro[1,4-oxazino[4,3-a][1,2]oxazolo[4,5-g]quinoline-5,5′-pyrimidine]-2′,4′,6′(1′H,3′H)-trione] | > 200 | 1.6 (≈ 0.854 µg/mL) | 200 (≈ 107 µg/mL) | 50 (≈ 26.7 µg/mL) | 1.6 (≈ 0.854 µg/mL) | 1.6 (≈ 0.854 µg/mL) | 0.78 (≈ 0.416 µg/mL) | 0.78 (≈ 0.416 µg/mL) | 3.1 (≈ 1.66 µg/mL) | 3.1 (≈ 1.66 µg/mL) | 540 |  |  |  |  |  |
| C[C@@H]1CN2c3c(cc4c(N5C[C@@H](c6ccccn6)OC5=O)noc4c3F)CC3(C(=O)NC(=O)NC3=O)[C@H]2[C@H](C)O1 [Example 54, (2R,4S,4aS)-11-fluoro-2,4-dimethyl-8-((S)-2-oxo-5-(pyridin-2-yl)oxazolidin-3-yl)-2,4,4a,6-tetrahydro-1H,1′H-spiro[isoxazolo[4,5-g][1,4]oxazino[4,3-a]quinoline-5,5′-pyrimidine]-2′,4′,6′(3′H)-trione] | > 200 | 3.1 (≈ 1.71 µg/mL) | > 200 | 100 (≈ 55.1 µg/mL) | 0.78 (≈ 0.429 µg/mL) | 0.78 (≈ 0.429 µg/mL) | 0.78 (≈ 0.429 µg/mL) | 0.39 (≈ 0.215 µg/mL) | 0.78 (≈ 0.429 µg/mL) | 1.6 (≈ 0.881 µg/mL) | 940 |  |  |  |  |  |
